# Test results taken from the supplement of paper PMC10307832.
# How the values were obtained:
# Assay in all cases: relative viability (nuclei count vs DMSO), 5 days (fraction); higher = more cells survive
# [1] = compound: CCn1c(-c2nonc2N)nc2cnc(Oc3cccc(NC(=O)c4ccc(OCCN5CCOCC5)cc4)c3)cc21 + COc1cccc2cc(-c3nc([C@H]4CC[C@H](C(=O)O)CC4)n4ncnc(N)c34)[nH]c12 [OSI-027] (partner 0.5 µM)
# Outline: (§1)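 One day after seeding in 1536-well plates, lung cancer cell lines were dosed by pin tool. Dosing was either single-drug or a fixed anchor-drug dose plus five library-drug doses (not always all listed) in √10 steps. After 5 days, nuclei were stained in one fix-and-stain step and counted on 4× images, and relative viability is the nuclei count of treated wells over that of vehicle wells, given as the median of duplicate plates.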
# Mirin + Palbociclib = compound: N=C1NC(=O)/C(=C/c2ccc(O)cc2)S1 [Mirin] + CC(=O)c1c(C)c2cnc(Nc3ccc(N4CCNCC4)cn3)nc2n(C2CCCC2)c1=O [Palbociclib] (partner 0.5 µM)
# Outline: as §1
# Mirin + Foretinib = compound: N=C1NC(=O)/C(=C/c2ccc(O)cc2)S1 [Mirin] + COc1cc2c(Oc3ccc(NC(=O)C4(C(=O)Nc5ccc(F)cc5)CC4)cc3F)ccnc2cc1OCCCN1CCOCC1 [Foretinib] (partner 0.25 µM)
# Outline: as §1
# Mirin + Pictilisib = compound: N=C1NC(=O)/C(=C/c2ccc(O)cc2)S1 [Mirin] + CS(=O)(=O)N1CCN(Cc2cc3nc(-c4cccc5[nH]ncc45)nc(N4CCOCC4)c3s2)CC1 [Pictilisib] (partner 1 µM)
# Outline: as §1
Cell Line,relative viability ([1]; first compound 0.04 µM),relative viability ([1]; first compound 0.1265 µM),relative viability ([1]; first compound 0.4 µM),relative viability ([1]; first compound 1.265 µM),relative viability ([1]; first compound 4 µM),relative viability (Mirin + Palbociclib; first compound 0.25 µM),relative viability (Mirin + Palbociclib; first compound 0.7906 µM),relative viability (Mirin + Palbociclib; first compound 2.5 µM),relative viability (Mirin + Palbociclib; first compound 7.906 µM),relative viability (Mirin + Palbociclib; first compound 25 µM),relative viability (Mirin + Foretinib; first compound 0.25 µM),relative viability (Mirin + Foretinib; first compound 0.7906 µM),relative viability (Mirin + Foretinib; first compound 2.5 µM),relative viability (Mirin + Foretinib; first compound 7.906 µM),relative viability (Mirin + Foretinib; first compound 25 µM),relative viability (Mirin + Pictilisib; first compound 0.25 µM),relative viability (Mirin + Pictilisib; first compound 0.7906 µM),relative viability (Mirin + Pictilisib; first compound 2.5 µM),relative viability (Mirin + Pictilisib; first compound 7.906 µM),relative viability (Mirin + Pictilisib; first compound 25 µM)
LXF-289,0.924,0.758,0.208,0.443,0.361,0.585,0.648,0.591,0.623,0.701,1.04,1.03,0.939,1.09,1.01,0.744,0.747,0.803,0.844,0.701
NCI-H23,0.614,0.768,0.249,0.534,0.525,0.548,–,0.519,0.49,0.524,0.8,–,1.13,0.891,0.773,0.483,–,0.385,0.367,0.373
NCI-H322M,0.826,0.667,0.416,0.562,0.611,0.466,0.497,0.521,0.553,0.522,1.06,1.02,1.07,0.934,1.05,0.5,0.419,0.492,0.567,0.583
NCI-H358,0.84,0.73,0.579,0.816,0.523,0.127,0.145,0.148,0.139,0.199,0.734,0.742,0.739,0.565,0.406,0.357,0.288,0.415,0.315,0.323
NCI-H441,0.772,0.721,–,0.513,0.472,0.259,0.232,0.241,0.242,0.175,1.02,1.16,0.995,1.09,1.05,0.531,0.521,0.528,0.37,0.362
NCI-H460,0.741,0.561,0.364,0.163,0.0569,0.18,0.148,0.157,0.157,0.123,1.08,1.04,0.999,1.04,1.08,0.347,0.152,0.347,0.333,0.235
NCI-H520,0.354,0.36,0.279,0.332,0.224,0.214,0.267,0.245,0.188,0.138,0.742,0.784,0.874,0.874,0.439,0.275,0.284,0.274,0.202,0.181
NCI-H647,0.591,0.393,0.323,0.34,0.278,0.395,0.4,0.381,0.374,0.345,1.4,1.27,1.14,1.32,0.946,0.413,–,0.417,–,0.295
NCI-H650,0.601,0.39,0.254,0.238,0.265,0.306,0.399,0.333,0.265,0.38,0.834,1.07,1.06,–,1.13,0.835,–,0.945,–,0.744
NCI-H661,0.562,0.593,0.445,0.467,0.33,0.416,0.426,0.406,0.369,0.401,1.05,1.06,1.02,1.07,0.975,–,0.329,0.499,–,0.332
NCI-H727,1.01,0.924,0.441,0.612,0.818,0.707,0.782,0.594,0.615,0.636,0.9,0.889,1.18,1.14,1.12,0.353,0.443,0.458,0.501,0.515
NCI-H838,0.338,0.294,0.228,0.242,0.194,0.25,0.232,0.232,0.234,0.236,1.05,1.08,1.08,1,0.852,0.465,0.398,0.562,0.54,0.421
NCI-H1355,0.477,0.385,0.197,0.306,0.312,0.395,0.427,0.41,0.412,0.443,0.67,1,0.967,0.971,0.918,0.48,0.254,0.419,0.427,0.505
NCI-H1395,0.785,0.512,0.525,0.351,0.384,0.588,–,0.594,0.69,0.581,0.908,0.994,1.03,0.977,1.14,0.578,–,0.617,0.549,0.512
NCI-H1437,0.946,0.742,0.553,0.74,0.662,0.358,0.32,0.292,0.318,0.327,1.31,1.31,1.22,1.2,1.19,0.525,0.436,0.487,0.272,0.165
NCI-H1650,0.666,0.678,0.551,0.535,0.656,0.362,0.346,0.336,0.369,0.263,1.22,1.11,0.968,1.43,0.782,0.576,0.494,0.592,0.447,0.385
NCI-H1651,0.745,0.684,0.596,0.57,0.404,0.477,0.561,0.53,0.497,0.516,0.814,0.845,0.773,0.678,0.69,0.62,0.597,0.573,0.488,0.554
